Some test systems named below: MCF7 breast; HT29 colon; NCI-H23 lung; SF-295 CNS; MDA-MB-231 breast; A549 NSCLC; SNB-19 CNS; HOP-92 NSCLC; HL-60(TB) leukemia; HS 578T breast.
Assay in all cases: inhibition of tumour cell growth, NCI panel, 48 h

Molecules are shown by their SMILES.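 Dose response: 5 concentrations. Exposure: 48 h. Format: 96-well plates. Endpoint: linear interpolation; highest concentration if not reached. TGI denotes the concentration required for complete inhibition of growth.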 Where a SMILES comes first, the peptide text is derived from it. [ ]: non-standard residue; d: D form. The star is where a group is joined. Boc = CC(C)(C)OC(=O)*

As for `O=C(NNC(=O)c1csc(NC(=S)NC2CCCCC2)n1)c1ccccc1`, the TGI in the assay with MCF7 breast is more than 100 µM; in the assay with HT29 colon, 21.3 µM; in the assay on NCI-H23 lung it was 40.6 µM; in the assay on SF-295 CNS, 51.9 µM; in the assay on MDA-MB-231 breast, 30.8 µM; with A549 NSCLC, 54.1 µM.

On to `O=C(O)C1CCCCN1c1ccccc1[N+](=O)[O-]` (stereo not drawn), for which the TGI in the assay on SNB-19 CNS, in the assay on HOP-92 NSCLC, in the assay with HT29 colon, in the assay with NCI-H23 lung, in the assay with SF-295 CNS and with HL-60(TB) leukemia was more than 100 µM each time. Moreover, the TGI with A549 NSCLC was more than 100 µM.

Consider `O=C(N/N=C/c1cc(Br)cc(Br)c1[O-])c1ccccc1O.O=C(N/N=C/c1cc(Br)cc(Br)c1[O-])c1ccccc1O.[Co+2]`, for which the TGI with SNB-19 CNS was found to be 28.4 µM; with HOP-92 NSCLC, 6.13 µM; in the assay on HT29 colon it was 17.7 µM; in the assay on NCI-H23 lung it was 7.57 µM; with SF-295 CNS, 12.6 µM; with HL-60(TB) leukemia, 0.906 µM. In addition, the TGI in the assay with A549 NSCLC is 12.6 µM.

Regarding `CC[C@@]1(O)C(=O)OCc2c1cc1n(c2=O)Cc2c-1nc1ccccc1c2/C=N/NC(=O)c1ccc(N)cc1`, the TGI in the assay with SNB-19 CNS is more than 100 µM; in the assay on MCF7 breast, more than 100 µM; with HT29 colon, more than 100 µM; in the assay on NCI-H23 lung it was 1.48 µM; with SF-295 CNS, 14.7 µM; with MDA-MB-231 breast it was more than 100 µM. Further, the TGI in the assay with A549 NSCLC and in the assay with HS 578T breast was more than 100 µM each time.

As for `COC(=O)[C@H](Cc1ccc(O)cc1)NC(=O)[C@H](Cc1ccc(O)cc1)NC(=O)OC(C)(C)C` (Boc-Tyr-Tyr-OMe), the TGI with SNB-19 CNS, in the assay with MCF7 breast, in the assay on HT29 colon, in the assay on NCI-H23 lung, with SF-295 CNS and in the assay on MDA-MB-231 breast was more than 100 µM in each case. The TGI in the assay on A549 NSCLC and with HS 578T breast was more than 100 µM each time.

For `CC1(C)[C@@H]2C[C@H]1c1cnc(-c3ccccn3)cc1C2CCCCC[C@@H]1c2cc(-c3ccccn3)ncc2[C@@H]2C[C@H]1C2(C)C` (stereo partly drawn), the TGI was more than 100 µM with SNB-19 CNS; more than 100 µM in the assay on MCF7 breast; more than 33.3 µM with HT29 colon; 7.33 µM in the assay on SF-295 CNS; 5.76 µM in the assay on HL-60(TB) leukemia; 89 µM with MDA-MB-231 breast. In addition, in the assay with A549 NSCLC, the TGI is more than 36.7 µM.

Regarding `COC(=O)CC1c2ccccc2N2C(=O)Cc3c([nH]c4ccccc34)C12` (stereo not drawn), the TGI in the assay with SNB-19 CNS, in the assay on MCF7 breast, in the assay with HOP-92 NSCLC, in the assay on HT29 colon, in the assay with NCI-H23 lung and in the assay on SF-295 CNS was more than 100 µM each time. Moreover, the TGI in the assay with MDA-MB-231 breast is more than 100 µM; with A549 NSCLC, more than 100 µM; in the assay on HS 578T breast it was 96.2 µM.

Regarding `Cn1c(N)nc(-c2ccc(Cl)cc2)c1SSc1c(-c2ccc(Cl)cc2)nc(N)n1C`, the TGI in the assay on SNB-19 CNS was 27.8 µM; in the assay with HOP-92 NSCLC, 3.7 µM; in the assay on HT29 colon it was 4.74 µM; in the assay on NCI-H23 lung, 3.37 µM; in the assay on SF-295 CNS it was 21.4 µM; in the assay on HL-60(TB) leukemia, 2.92 µM. In addition, the TGI with MDA-MB-231 breast is 2.88 µM; with A549 NSCLC, 27.2 µM; with HS 578T breast it was more than 100 µM.

Turning to `O=c1oc2c(Cl)cc(Cl)cc2cc1C1=CSC2=NCCN12`, the TGI with SNB-19 CNS is more than 100 µM; in the assay with MCF7 breast, 88.9 µM; in the assay on HOP-92 NSCLC, more than 100 µM; in the assay on HT29 colon it was more than 100 µM; in the assay on NCI-H23 lung, more than 100 µM; with SF-295 CNS it was more than 100 µM. In addition, the TGI in the assay on HL-60(TB) leukemia, in the assay on MDA-MB-231 breast and in the assay on A549 NSCLC was more than 100 µM each time.

In the case of `Cc1ccc(N/C(SCc2ccccc2)=C(\C(Cl)=C(Cl)Cl)[N+](=O)[O-])c(C)c1`, the TGI in the assay with SNB-19 CNS was more than 100 µM; in the assay with MCF7 breast, more than 100 µM; in the assay on HT29 colon, more than 100 µM; in the assay on NCI-H23 lung, 38.5 µM; in the assay with SF-295 CNS it was 94.9 µM; in the assay with MDA-MB-231 breast, 34.8 µM. Also, the TGI was 90.6 µM in the assay with A549 NSCLC and 68.4 µM with HS 578T breast.

As to `CC(C)C[C@H](NC(=O)[C@H](CC(C)C)NC(=O)[C@@H](Cc1c[nH]c2ccccc12)NC(=O)[C@H](Cc1ccccc1)NC(=O)[C@@H](Cc1c[nH]c2ccccc12)NC(=O)[C@H](CCC(N)=O)NC(=O)[C@H](CCC(N)=O)NC(=O)[C@H]1CCCN1C(=O)[C@@H](N)CCCCN)C(N)=O` (H-K[dP]QQ[dW]F[dW]LL-NH2), the TGI in the assay with SNB-19 CNS, in the assay on MCF7 breast, in the assay on HOP-92 NSCLC, with HT29 colon, with NCI-H23 lung and with SF-295 CNS was more than 100 µM in each case. In addition, the TGI in the assay on HL-60(TB) leukemia and in the assay with A549 NSCLC was more than 100 µM each time.

Consider `Cc1ccc(Nc2nc3c(=O)n(C)c(=O)n(C)c3nc2Nc2ccc(C)cc2)cc1`, for which the TGI in the assay on SNB-19 CNS is more than 100 µM; in the assay with HOP-92 NSCLC, 23.5 µM; with HT29 colon, 23.4 µM; in the assay on NCI-H23 lung, 31.2 µM; in the assay with SF-295 CNS, 45.7 µM; in the assay with HL-60(TB) leukemia, more than 100 µM. The TGI with MDA-MB-231 breast worked out at 27.1 µM; in the assay with A549 NSCLC it was 52.9 µM; with HS 578T breast, 79.6 µM.

In the case of `CCOC(=O)c1cccc(NC(=O)CI)c1`, the TGI in the assay with SNB-19 CNS was determined as 9.39 µM; with MCF7 breast, 1.33 µM; with HOP-92 NSCLC it was 3.57 µM; in the assay on HT29 colon, 0.646 µM; in the assay with NCI-H23 lung it was 0.521 µM; in the assay on SF-295 CNS, 5.69 µM. Also, the values for the TGI in the assay on MDA-MB-231 breast and in the assay on A549 NSCLC were 2.91 µM and 3.41 µM, respectively.

For `Cc1n(Cc2ccccc2)nc2sc(N)n[n+]12`, the TGI with SNB-19 CNS, in the assay on MCF7 breast, with HT29 colon, with NCI-H23 lung, in the assay with SF-295 CNS and in the assay with A549 NSCLC was more than 100 µM each time. Also, in the assay on HS 578T breast, the TGI was more than 100 µM.

Regarding `Cc1ccc(N(C)S(=O)(=O)c2ccccc2[N+](=O)[O-])cc1`, the TGI with SNB-19 CNS, in the assay with MCF7 breast, with HT29 colon, with NCI-H23 lung, in the assay with SF-295 CNS and in the assay on HL-60(TB) leukemia was more than 100 µM each time. Besides, the TGI in the assay with MDA-MB-231 breast and in the assay on A549 NSCLC was more than 100 µM throughout.

The values are drawn from PubChem BioAssay (NCI).
